The record followed here is ChEMBL document CHEMBL1201862, “PubChem BioAssay data set” (2004).

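All cell lines were grown in 96-well plates and treated with compound for 48 hours. Here, GI50 denotes the concentration required for 50% inhibition of growth.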 Active and inactive are the calls of the source. No stated cut-off is given here; in the data, active = GI50 up to about 1.1 µM and inactive = higher.

Among the test systems are CAKI-1; Malme-3M; SR; OVCAR-8; SNB-75; SW-620; HCT-15; SK-OV-3; M14; MDA-N; IGROV-1; HT-29; UO-31; ACHN; HCC 2998; HOP-62; SN12C; UACC-257; NCI-H522; NCI/ADR-RES.
Holding throughout (experiment): growth of human tumour cells (NCI), 48 h

As to `COC(=O)CSC1CC(=O)c2c(Cl)sc(Cl)c21` (stereo unspecified), the GI50 in the experiment on CAKI-1 was > 100 µM (inactive); with Malme-3M, > 100 µM (inactive); in the experiment on SR it was 66.2 µM (inactive); in the experiment on OVCAR-8, > 100 µM (inactive); with SNB-75, > 100 µM (inactive); in the experiment on SW-620, > 100 µM (inactive). Besides, the GI50 was > 100 µM with HCT-15; > 100 µM (inactive) in the experiment on SK-OV-3; > 100 µM (inactive) in the experiment on M14; > 100 µM (inactive) with MDA-N; > 100 µM (inactive) in the experiment with IGROV-1; > 100 µM (inactive) in the experiment with HT-29. In addition, the GI50 in the experiment on UO-31, in the experiment on ACHN, in the experiment with HCC 2998, in the experiment on HOP-62, in the experiment with SN12C and in the experiment on UACC-257 was > 100 µM (inactive) in each case. In the experiment on NCI-H522, the GI50 is > 100 µM (inactive).
As for `CCOC(=O)/C=C\[C@H]1OC(C)(C)O[C@H]1[C@H](O)[C@H]1COC(C)(C)O1`, the GI50 in the experiment on CAKI-1 was 2.57 µM (inactive); with Malme-3M it was 18.9 µM (inactive); with SR, 17.1 µM (inactive); with OVCAR-8, 29.8 µM (inactive); in the experiment on SNB-75 it was 2.57 µM (inactive); in the experiment on SW-620, 19.6 µM (inactive). Also, the GI50 in the experiment on HCT-15 was 17 µM; with SK-OV-3 it was > 100 µM (inactive); with M14 it was 17.8 µM (inactive); in the experiment on IGROV-1 it was 19.5 µM (inactive); with HT-29 it was 20.7 µM (inactive); with UO-31 it was 18.4 µM (inactive). The GI50 in the experiment on ACHN is 16.3 µM (inactive); in the experiment with HCC 2998, 11.3 µM (inactive); with HOP-62, 66.4 µM (inactive); with SN12C it was 17.4 µM (inactive); with NCI/ADR-RES, 32.5 µM (inactive); with UACC-257, 22.6 µM (inactive). Also, in the experiment on NCI-H522, the GI50 was 13.8 µM (inactive).
On to `O=CC1CCCc2ccccc21` (stereo unspecified), for which the GI50 in the experiment on CAKI-1 was > 100 µM (inactive); in the experiment with Malme-3M, > 100 µM (inactive); in the experiment with SR it was > 100 µM (inactive); in the experiment with OVCAR-8, > 100 µM (inactive); in the experiment on SNB-75, > 100 µM (inactive); in the experiment with SW-620, > 40.4 µM (inactive). Besides, the GI50 with HCT-15 is > 51.5 µM; in the experiment on SK-OV-3, > 100 µM (inactive); in the experiment with M14, > 100 µM (inactive); in the experiment with IGROV-1 it was > 100 µM (inactive); in the experiment with HT-29, > 100 µM (inactive); with UO-31 it was > 100 µM (inactive). In addition, the GI50 in the experiment with ACHN was > 100 µM (inactive); in the experiment with HCC 2998, > 100 µM (inactive); in the experiment with HOP-62, > 100 µM (inactive); with SN12C, > 100 µM (inactive); in the experiment with UACC-257, > 74.3 µM (inactive); in the experiment on NCI-H522 it was > 79.6 µM (inactive).
As for `COc1cccc(-n2nnc3c(N)nc(N)nc32)c1`, the GI50 in the experiment with CAKI-1 is > 100 µM (inactive); with Malme-3M, > 100 µM (inactive); in the experiment with OVCAR-8 it was > 100 µM (inactive); in the experiment with SNB-75, 15.7 µM (inactive); in the experiment on SW-620 it was > 100 µM (inactive); in the experiment with HCT-15 it was > 100 µM. The GI50 is > 100 µM (inactive) in the experiment with SK-OV-3; > 100 µM (inactive) in the experiment with M14; > 100 µM (inactive) with MDA-N; 51.6 µM (inactive) in the experiment with IGROV-1; > 100 µM (inactive) with HT-29; 53.7 µM (inactive) with ACHN. Also, the GI50 in the experiment with HOP-62, in the experiment on SN12C, with NCI/ADR-RES, with UACC-257 and in the experiment on NCI-H522 was > 100 µM (inactive) each time.
Take `COc1ccccc1NC(=S)Nc1cccc(C)n1`: the GI50 with CAKI-1 was 88.5 µM (inactive); in the experiment on Malme-3M, 16.7 µM (inactive); in the experiment on SR, > 100 µM (inactive); with OVCAR-8 it was > 100 µM (inactive); in the experiment with SNB-75 it was 1.07 µM (active); with SW-620 it was > 100 µM (inactive). Further, the GI50 is > 100 µM in the experiment on HCT-15; > 100 µM (inactive) in the experiment with SK-OV-3; > 100 µM (inactive) in the experiment on M14; 31.8 µM (inactive) in the experiment on IGROV-1; 45.3 µM (inactive) in the experiment on HT-29; > 100 µM (inactive) in the experiment on UO-31. The GI50 in the experiment with HOP-62 was 43.6 µM (inactive); with SN12C, > 100 µM (inactive); in the experiment with NCI/ADR-RES, > 100 µM (inactive); in the experiment with UACC-257, > 100 µM (inactive); in the experiment on NCI-H522 it was 2.84 µM (inactive).
Take `CN(CCCNCc1ccccn1)Cc1ccccc1O`: the GI50 in the experiment on CAKI-1 was 42.8 µM (inactive); with Malme-3M it was 27.8 µM (inactive); with OVCAR-8, 26.8 µM (inactive); in the experiment with SNB-75, > 100 µM (inactive); with SW-620 it was > 100 µM (inactive); with HCT-15, 6.4 µM. The GI50 in the experiment on SK-OV-3 was 45.2 µM (inactive); in the experiment on MDA-N, 58.2 µM (inactive); in the experiment on IGROV-1 it was 20.2 µM (inactive); with HT-29 it was 22 µM (inactive); in the experiment with UO-31 it was 3.73 µM (inactive); with ACHN, 13.9 µM (inactive). The GI50 was 25.1 µM (inactive) in the experiment on HCC 2998; 12.4 µM (inactive) in the experiment on HOP-62; 71.1 µM (inactive) in the experiment on SN12C; 16.3 µM (inactive) in the experiment on NCI/ADR-RES; 24.3 µM (inactive) in the experiment on UACC-257; 56.2 µM (inactive) in the experiment with NCI-H522.
On to `CCOC(=O)Cc1csc2[n+]1C(=O)/C(=C\c1cccc(Cl)c1Cl)S2`, for which the GI50 in the experiment on CAKI-1 is 23.6 µM (inactive); in the experiment with OVCAR-8, 19.5 µM (inactive); in the experiment on SNB-75 it was 23.8 µM (inactive); in the experiment with SW-620 it was 18.6 µM (inactive); in the experiment on HCT-15, 16.2 µM; in the experiment with SK-OV-3, 17.3 µM (inactive). Besides, the GI50 in the experiment with M14 was 26.9 µM (inactive); in the experiment on MDA-N it was 17.7 µM (inactive); in the experiment with IGROV-1 it was 20.1 µM (inactive); in the experiment on HT-29 it was 21.8 µM (inactive); in the experiment with UO-31 it was 12.7 µM (inactive); in the experiment on ACHN, 17.9 µM (inactive). Also, the GI50 in the experiment on HCC 2998 is 17.7 µM (inactive); with HOP-62, 20.8 µM (inactive); with SN12C, 16.2 µM (inactive); in the experiment on NCI/ADR-RES, 16.7 µM (inactive); with UACC-257 it was 20.1 µM (inactive); in the experiment with NCI-H522, 14.8 µM (inactive).
On to `Cc1ccccc1-n1c(=O)c2ncn(CCCl)c2n(-c2ccccc2C)c1=S`, for which the GI50 in the experiment with CAKI-1 is > 100 µM (inactive); in the experiment with SR, > 100 µM (inactive); in the experiment with OVCAR-8, > 100 µM (inactive); in the experiment on SNB-75, > 100 µM (inactive); with SW-620 it was > 100 µM (inactive); in the experiment on HCT-15, > 100 µM. Further, the GI50 in the experiment with SK-OV-3, with M14, with IGROV-1, with HT-29, in the experiment with UO-31 and with ACHN was > 100 µM (inactive) throughout. Besides, the GI50 was > 100 µM (inactive) in the experiment on HCC 2998; > 100 µM (inactive) with HOP-62; > 100 µM (inactive) in the experiment with SN12C; > 100 µM (inactive) in the experiment on NCI/ADR-RES; > 100 µM (inactive) with UACC-257; 38.5 µM (inactive) with NCI-H522.
As for `CCCCOC(=O)C(=O)C(CC(CC)C(=O)c1ccccc1)C(=O)C=C(C)C` (stereo unspecified), the GI50 in the experiment with CAKI-1 was > 100 µM (inactive); in the experiment with OVCAR-8 it was > 100 µM (inactive); in the experiment on SNB-75 it was > 100 µM (inactive); in the experiment with SW-620 it was > 100 µM (inactive); in the experiment on HCT-15, > 100 µM; in the experiment with SK-OV-3, > 100 µM (inactive). For the same molecule, the GI50 with M14, in the experiment on MDA-N, in the experiment with IGROV-1, in the experiment on UO-31, with ACHN and in the experiment with HCC 2998 was > 100 µM (inactive) throughout. Further, the GI50 in the experiment on HOP-62, in the experiment with SN12C, in the experiment with NCI/ADR-RES, in the experiment on UACC-257 and in the experiment on NCI-H522 was > 100 µM (inactive) each time.
As for `CCCCCCCCCCCCCCCCOCC(COP(=O)(O)OCC1OC(n2cc(CC)c(=O)[nH]c2=O)CC1O)OC(=O)CCCCCCCCCCCCCCC` (stereo unspecified), the GI50 in the experiment with CAKI-1 is > 100 µM (inactive); in the experiment on SR it was > 100 µM (inactive); in the experiment on OVCAR-8 it was > 100 µM (inactive); with SNB-75, > 100 µM (inactive); in the experiment with SW-620, > 100 µM (inactive); with HCT-15, > 100 µM. Further, the GI50 in the experiment on SK-OV-3, in the experiment on M14, in the experiment with IGROV-1, in the experiment on HT-29, with UO-31 and in the experiment with ACHN was > 100 µM (inactive) throughout. For the same molecule, the GI50 in the experiment on HCC 2998, in the experiment on HOP-62, in the experiment with SN12C, in the experiment with NCI/ADR-RES, in the experiment on UACC-257 and with NCI-H522 was > 100 µM (inactive) in each case.
In the case of `Cc1ccc(S(=O)(=O)NC(=O)NCCc2c[nH]cn2)cc1`, the GI50 with CAKI-1, with Malme-3M, in the experiment with SR, with OVCAR-8, in the experiment on SNB-75 and in the experiment with SW-620 was > 100 µM (inactive) each time. The GI50 in the experiment with HCT-15 is > 100 µM; in the experiment with SK-OV-3, > 100 µM (inactive); in the experiment with M14, > 100 µM (inactive); in the experiment on IGROV-1 it was > 100 µM (inactive); with HT-29, > 100 µM (inactive); in the experiment with UO-31, > 100 µM (inactive). Besides, the GI50 with ACHN, in the experiment on HCC 2998, with HOP-62, with NCI/ADR-RES and with NCI-H522 was > 100 µM (inactive) each time.
